Measured values: patent US20250288704A1, “CXCR4-LIGANDS FOR DIAGNOSTIC AND THERAPEUTIC USE AND PRECURSORS THEREOF” (priority 2021, published 2025)
Where two headings read alike, the source gives them in different places. Positions of bridges follow the written chain, without caps; N, C: chain ends. Non-standard residues stand in square brackets, D forms with d. Residues, ends and D or L forms follow the SMILES beside them. Groups on a side chain read outwards from the residue. Chains are numbered I, II in the order given. *: point of attachment. X2 = OC[C@H]1O[C@@H](O[C@H]2[C@H](O)[C@@H](O)[C@H](*)O[C@@H]2CO)[C@H](O)[C@@H](O)[C@H]1O; X7 = O=C(O)CN1CCN(CC(=O)O)CCN([C@H](CCC(=O)*)C(=O)O)CCN(CC(=O)O)CC1; Benzoyl(4-SiFtBu2) = CC(C)(C)[Si](F)(c1ccc(C(=O)*)cc1)C(C)(C)C; X5 = CC(C)(C)[Si](F)(c1ccc(C[N+](C)(C)CC(=O)*)cc1)C(C)(C)C; DOTA = O=C(O)CN1CCN(CC(=O)O)CCN(CC(=O)*)CCN(CC(=O)O)CC1; 2Nal = N[C@@H](Cc1ccc2ccccc2c1)C(=O)O; dNMeOrn = CN[C@H](CCCN)C(=O)O; d(hCys) = N[C@H](CCS)C(=O)O; 4Amb = NCc1ccc(C(=O)O)cc1; 4Abz = Nc1ccc(C(=O)O)cc1; dDap = NC[C@@H](N)C(=O)O; Ahx = NCCCCCC(=O)O

Legend:
[1] = Octanol/PBS partition coefficient (logD7.4); assay type: physicochemical; conditions: n-octanol/PBS pH 7.4, radiolabeled compound
Procedure: The tubes were vortexed at maximum speed for 3 min to ensure equilibrium before centrifugation at 15.000×g for 5 min on a Biofuge 15 from Heraeus Holding GmbH (Osterode, Germany). An aliquot of 100 μL of each fraction was measured in the γ-counter and the log D7.4 calculated as follows: […]

[2] = Biodistribution in Jurkat tumor-bearing CB-17 SCID mice; assay type: in vivo; conditions: female, CB-17 SCID, mouse, in vivo, iv, total radioactivity
Procedure: All animal experiments were conducted in accordance with general animal welfare regulations in Germany and the institutional guidelines for the care and use of animals. To establish tumor xenografts, Jurkat cells (2-3×10^7 cells) were suspended in a mixture of Gibco's RPMI 1640 medium and Matrigel (1/1; v/v) from BD Biosciences (Heidelberg, Germany), and inoculated subcutaneously onto the right shoulder of 6-10 weeks old CB17-SCID mice from either Charles River GmbH (Sulzfeld, Germany) or the in-house mouse breeding facility. Mice were used when tumors had grown to a diameter of 5-8 mm (4-10 weeks after inoculation).
Approximately 0.5-20 MBq (0.02-0.20 nmol) of the ^125I-, ^177Lu-, ^99mTc-, ^18F- or ^68Ga-labeled ligand were injected into the tail vein of Jurkat tumor-bearing CB-17 SCID mice and the animals sacrificed after the respective biodistribution time. Selected organs were removed, weighted and measured in a γ-counter.

[3] = system: CXCR4-expressing Chem_1 cells; experiment: Determination of internalization, dual tracer with 125I-Fc-131; assay type: cell-based; conditions: for Cell-bound [%] / Internalized [%]: of total cellular activity
Procedure: CXCR4-expressing Chem_1 cells were grown in DMEM-F12 medium supplemented with 10 vol % FBS, 1 vol % NEA, 1 vol % PenStrep and 1 vol % HEPES (1.00 M). Cells were maintained in a 5% CO2 atmosphere at 37° C.
For in vitro experiments, cells were harvested by removal of the medium and incubation of the cells with trypsine/EDTA (0.05%/0.02%; w/v) for 30 in at 37° C.
Each well (n=3 for every time point) was either treated with 25 μL DMEM-F12 (+5 wt % BSA) or 25 μL of an AMD3100 stock (1 mM in H2O) for blockage of the receptors.
The experiment was stopped by placing the well-plate on ice and removing the supernatant. The cells were washed with 250 μL cold HBSS and the both fractions for each well combined, comprising the amount of unbound radioligand.
The supernatant was removed, the cells washed with cold HBSS and the respective fractions combined to obtain the amount of surface-bound radioligand.
The cells were then incubated with 300 μL NaOH (1.00 M in H2O) for at least 30 at r.t. before the supernatant was removed. The well was washed with another 300 μL NaOH and the fractions combined that contain the amount of internalized radioligand.
The three different fractions were subjected to activity measurement in the γ-counter, measuring the activity of the radionuclide used for the labeling of the peptide under investigation first. […] Data was corrected for non-specific internalization and referred to the specific internalization of the standard ligand

| SMILES | logD7.4 [1] | tissue uptake at 1 h ([2]; % iD/g Blood) [%ID/g] | tissue uptake at 1 h ([2]; % iD/g Bone) [%ID/g] | tissue uptake at 1 h ([2]; % iD/g Heart) [%ID/g] | tissue uptake at 1 h ([2]; % iD/g Intestine) [%ID/g] | tissue uptake at 1 h ([2]; % iD/g Kidney) [%ID/g] | tissue uptake at 1 h ([2]; % iD/g Liver) [%ID/g] | tissue uptake at 1 h ([2]; % iD/g Lung) [%ID/g] | tissue uptake at 1 h ([2]; % iD/g Muscle) [%ID/g] | tissue uptake at 1 h ([2]; % iD/g Pancreas) [%ID/g] | tissue uptake at 1 h ([2]; % iD/g Spleen) [%ID/g] | tissue uptake at 1 h ([2]; % iD/g Stomach) [%ID/g] | tissue uptake at 1 h ([2]; % iD/g Tumor) [%ID/g] | further results |
| --- | --- | --- | --- | --- | --- | --- | --- | --- | --- | --- | --- | --- | --- | --- |
| C[C@@H](NC(=O)[C@@H](CCCNC(=N)N)NC(=O)[C@@H](Cc1c[nH]cn1)NC(=O)[C@@H](CNC(=O)c1ccc([Si](F)(C(C)(C)C)C(C)(C)C)cc1)NC(=O)CC[C@H](C(=O)O)N1CCN(CC(=O)O)CCN(CC(=O)O)CCN(CC(=O)O)CC1)C(=O)Nc1ccc(C(=O)NCCC[C@@H]2C(=O)N[C@@H](CCCNC(=N)N)C(=O)N[C@@H](Cc3ccc4ccccc4c3)C(=O)NCC(=O)N[C@H](Cc3ccc(O)cc3)C(=O)N2C)cc1 [CXCR4-SiFA-2 [Lu]] | 0.80 ± 0.04 (8) |  |  |  |  |  |  |  |  |  |  |  |  |  |
| C[C@@H](NC(=O)[C@@H](CCCNC(=N)N)NC(=O)[C@@H](CN)NC(=O)CCCCCNC(=O)[C@@H](CNC(=O)CN1CCN(CC(=O)O)CCN(CC(=O)O)CCN(CC(=O)O)CC1)NC(=O)[C@@H](CCS[C@@H]1O[C@H](CO)[C@@H](O[C@@H]2O[C@H](CO)[C@H](O)[C@H](O)[C@H]2O)[C@H](O)[C@H]1O)NC(=O)C[N+](C)(C)Cc1ccc([Si](F)(C(C)(C)C)C(C)(C)C)cc1)C(=O)Nc1ccc(C(=O)NCCC[C@@H]2C(=O)N[C@@H](CCCNC(=N)N)C(=O)N[C@@H](Cc3ccc4ccccc4c3)C(=O)NCC(=O)N[C@H](Cc3ccc(O)cc3)C(=O)N2C)cc1 [CXCR4-SiFA-7 [Ga]] (I: X5-[d(hCys)](X2)[dDap](DOTA)[Ahx][dDap][dR][dA][4Abz] / II: cyclo([dY][dNMeOrn]R[2Nal]G); amide I:C-II:2) |  |  |  |  |  |  |  |  |  |  |  |  |  | tissue uptake at 1 h ([2]; Blood, 1 h p.i., Jurkat xenograft, CB-17 SCID female mice, read-out: % iD/g Blood): 0.85 %ID/g; tissue uptake at 1 h ([2]; Bone, 1 h p.i., Jurkat xenograft, CB-17 SCID female mice, read-out: % iD/g Bone): 2.89 %ID/g; tissue uptake at 1 h ([2]; Heart, 1 h p.i., Jurkat xenograft, CB-17 SCID female mice, read-out: % iD/g Heart): 1.13 %ID/g; tissue uptake at 1 h ([2]; Intestine, 1 h p.i., Jurkat xenograft, CB-17 SCID female mice, read-out: % iD/g Intestine): 0.81 %ID/g; tissue uptake at 1 h ([2]; Kidney, 1 h p.i., Jurkat xenograft, CB-17 SCID female mice, read-out: % iD/g Kidney): 11.1 %ID/g; tissue uptake at 1 h ([2]; Liver, 1 h p.i., Jurkat xenograft, CB-17 SCID female mice, read-out: % iD/g Liver): 53.5 %ID/g; tissue uptake at 1 h ([2]; Lung, 1 h p.i., Jurkat xenograft, CB-17 SCID female mice, read-out: % iD/g Lung): 2.13 %ID/g; tissue uptake at 1 h ([2]; Muscle, 1 h p.i., Jurkat xenograft, CB-17 SCID female mice, read-out: % iD/g Muscle): 0.26 %ID/g; tissue uptake at 1 h ([2]; Pancreas, 1 h p.i., Jurkat xenograft, CB-17 SCID female mice, read-out: % iD/g Pancreas): 0.51 %ID/g; tissue uptake at 1 h ([2]; Spleen, 1 h p.i., Jurkat xenograft, CB-17 SCID female mice, read-out: % iD/g Spleen): 6.96 %ID/g; tissue uptake at 1 h ([2]; Stomach, 1 h p.i., Jurkat xenograft, CB-17 SCID female mice, read-out: % iD/g Stomach): 0.63 %ID/g; tissue uptake at 1 h ([2]; Tumor, 1 h p.i., Jurkat xenograft, CB-17 SCID female mice, read-out: % iD/g Tumor): 0.67 %ID/g |
| C[C@@H](NC(=O)[C@@H](CCCNC(=N)N)NC(=O)[C@@H](CN)NC(=O)CN1CCN(CC(=O)O)CCN(CC(=O)O)CCN(CC(=O)O)CC1)C(=O)NCc1ccc(C(=O)NCCC[C@@H]2C(=O)N[C@@H](CCCNC(=N)N)C(=O)N[C@@H](Cc3ccc4ccccc4c3)C(=O)NCC(=O)N[C@H](Cc3ccc(O)cc3)C(=O)N2C)cc1 [CXCR4-DOTA-1 [Lu]] (cyclo([dY][dNMeOrn]([4Amb-dA-dR-dDap-DOTA])R[2Nal]G)) |  | 1.24 | 0.72 | 0.73 | 0.67 | 18.8 | 11 | 2.16 | 0.22 | 0.39 | 3.19 | 1.06 | 5.98 |  |
| C[C@@H](NC(=O)[C@@H](CCCNC(=N)N)NC(=O)[C@@H](CN)NC(=O)[C@@H](CNC(=O)c1ccc([Si](F)(C(C)(C)C)C(C)(C)C)cc1)NC(=O)[C@@H](CCCCNC(=O)CC[C@H](C(=O)O)N1CCN(CC(=O)O)CCN(CC(=O)O)CCN(CC(=O)O)CC1)NC(=O)CC[C@H](C(=O)O)N1CCN(CC(=O)O)CCN(CC(=O)O)CCN(CC(=O)O)CC1)C(=O)Nc1ccc(C(=O)NCCC[C@@H]2C(=O)N[C@@H](CCCNC(=N)N)C(=O)N[C@@H](Cc3ccc4ccccc4c3)C(=O)NCC(=O)N[C@H](Cc3ccc(O)cc3)C(=O)N2C)cc1 [CXCR4-SiFA-3 [Ga]] (I: X7-[dK](X7)[dDap](Benzoyl(4-SiFtBu2))[dDap][dR][dA][4Abz] / II: cyclo([dY][dNMeOrn]R[2Nal]G); amide I:C-II:2) | −1.65 ± 0.09 (8) |  |  |  |  |  |  |  |  |  |  |  |  |  |
| C[C@@H](NC(=O)[C@@H](CCCNC(=N)N)NC(=O)[C@@H](CN)NC(=O)CCCCCNC(=O)[C@@H](CNC(=O)CN1CCN(CC(=O)O)CCN(CC(=O)O)CCN(CC(=O)O)CC1)NC(=O)CCCCC[N+]1=C(/C=C/C=C/C=C2/N(C)c3ccc(S(=O)(=O)O)cc3C2(C)C)C(C)(C)c2cc(S(=O)(=O)[O-])ccc21)C(=O)Nc1ccc(C(=O)NCCC[C@@H]2C(=O)N[C@@H](CCCNC(=N)N)C(=O)N[C@@H](Cc3ccc4ccccc4c3)C(=O)NCC(=O)N[C@H](Cc3ccc(O)cc3)C(=O)N2C)cc1 [[^natLu]CXCR4-OI-3, metal not drawn] |  | 1.9 | 1.1 | 1.39 | 0.85 | 35 | 36.3 | 4.28 | 0.33 | 0.44 | 5.94 | 1.43 | 2.13 | Internalized in relation to 125I-Fc-131 [%] ([3]; 30 min): 442 ± 12.1%; Cell-bound [%] ([3]; 30 min): 5.39 ± 0.41%; Internalized [%] ([3]; 30 min): 16.5 ± 0.19%; Internalized in relation to 125I-Fc-131 [%] ([3]; 90 min): 540 ± 42.7%; Cell-bound [%] ([3]; 90 min): 5.36 ± 0.47%; Internalized [%] ([3]; 90 min): 25.2 ± 1.08% |
| C[C@@H](NC(=O)[C@@H](CCCNC(=N)N)NC(=O)[C@@H](CNC(=O)c1ccc([Si](F)(C(C)(C)C)C(C)(C)C)cc1)NC(=O)CC[C@H](C(=O)O)N1CCN(CC(=O)O)CCN(CC(=O)O)CCN(CC(=O)O)CC1)C(=O)Nc1ccc(C(=O)NCCC[C@@H]2C(=O)N[C@@H](CCCNC(=N)N)C(=O)N[C@@H](Cc3ccc4ccccc4c3)C(=O)NCC(=O)N[C@H](Cc3ccc(O)cc3)C(=O)N2C)cc1 [CXCR4-SiFA-1 [Ga]] | 0.66 ± 0.01 (8) |  |  |  |  |  |  |  |  |  |  |  |  |  |
| CN1C(=O)[C@@H](Cc2ccc(O)cc2)NC(=O)CNC(=O)[C@H](Cc2ccc3ccccc3c2)NC(=O)[C@H](CCCNC(=N)N)NC(=O)[C@H]1CCCNC(=O)c1ccc(CNC(=O)CN2CCN(CC(=O)O)CCN(CC(=O)O)CCN(CC(=O)O)CC2)cc1 [^68Ga-Pentixafor, cyclo(D-Tyr^1-D-[NMe](DOTA)-Orn^2Arg^3-Nal^4-Gly^5), metal not drawn, reference compound] (cyclo([dY][dNMeOrn]([4Amb-DOTA])R[2Nal]G)) |  | 1.29 | 0.48 | 0.56 | 0.43 | 2.75 | 1.59 | 1.57 | 0.19 | 0.14 | 1.48 | 0.51 | 7.58 |  |
